Legend:
[1] = target: T1, rhGBA (Homo sapiens, UniProt P04062); assay: Time-dependent labelling of rhGBA with galacto-ABP 7 and gluco-ABP 8 (SDS-PAGE, Cy5 fluorescence); format: biochemical; details: rhGBA 700 nM, ABP 150 nM
T1 construct: made in house; host or cells: insect-baculovirus expression vector system (BEVS)
T1 sequence (P04062 40-536): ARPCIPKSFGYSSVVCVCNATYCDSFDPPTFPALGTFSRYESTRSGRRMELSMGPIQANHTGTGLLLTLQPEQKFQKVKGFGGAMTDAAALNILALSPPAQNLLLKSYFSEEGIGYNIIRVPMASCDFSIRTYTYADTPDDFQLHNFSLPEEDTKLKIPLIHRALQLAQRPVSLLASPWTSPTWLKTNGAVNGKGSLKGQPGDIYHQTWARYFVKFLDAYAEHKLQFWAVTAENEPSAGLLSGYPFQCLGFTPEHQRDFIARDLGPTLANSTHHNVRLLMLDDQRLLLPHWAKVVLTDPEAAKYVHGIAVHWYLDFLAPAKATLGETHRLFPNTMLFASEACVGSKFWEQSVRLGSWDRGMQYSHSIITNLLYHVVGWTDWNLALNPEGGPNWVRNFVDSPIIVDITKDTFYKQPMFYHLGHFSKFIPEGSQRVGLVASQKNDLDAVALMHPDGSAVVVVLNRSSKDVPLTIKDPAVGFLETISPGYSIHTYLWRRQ
Experimental: To rapidly investigate for cross‐reactivity with galacto‐configured cyclophellitol aziridines, time‐dependent labelling assays of rhGBA with galacto‐configured Cy5‐tagged aziridine ABP 7 were performed (Figure 3).
Figure 3 Time dependent labelling of rhGBA (700 nM) by Cy5‐tagged galacto‐ABP 7 (150 nM) after 2, 5, 10, 30 and 60 mins showing that labelling reaches saturation at 30 mins. In comparison, labelling by Cy5‐tagged gluco‐ABP 8 (150 nM) reaches saturation in 2mins. […] ABP labelled rhGBA (60 kDa) visualized by Cy5 fluorescent readout.
rhGBA produced in BEVS[58] was prepared at 700 nM in 150 mM McIlvaine buffer pH 5.2 (containing 0.1 % (v/v) Triton X‐100 and 0.2 % (w/v) sodium taurocholate) and ABP 7 or ABP 8 were added to 150 nM. The reactions were incubated at 37 °C and aliquots were taken at 2, 5, 10, 30 and 60 mins. The aliquots were immediately denatured with Laemmli (x3) sample buffer by heating at 95 °C for 5 minutes. The samples were resolved by electrophoresis in 10 % SDS‐PAGE gels, running at 200 V for ∼50 minutes. Wet slab gels were scanned on fluorescence using an AmershamTyphoon 5 Imager (GE Healthcare) with λEX 635 nm; λEM >665 nm.

[2] = tested on: GBA; details: read-out: apparent IC50 for GBA; cited from earlier work

Compound | time to saturation of rhGBA labelling (Figure 3 legend) [1] [min] | time to saturation of rhGBA labelling ([1]; pH 5.2, 37 °C) [min] | time within which rhGBA is labelled ([1]; pH 5.2, 37 °C) [min] | IC50 [2] [nM]
C[N+]1=C(C=CC=CC=C2N(CCCCCC(=O)NCc3ccc(C4=C5C(C=NN4)C4CC(C(=O)NCCCCCCN6C7C(O)C(O)C(O)C(CO)C76)C5C4)cc3)c3ccccc3C2(C)C)C(C)(C)c2ccccc21 (stereo not shown) [ABP 7] | 30 | ≤ 30 | ≤ 2 | 
OC[C@@H]1[C@@H](O)[C@H](O)[C@@H](O)[C@@H]2N[C@H]12 [compound 2, cyclophellitol aziridine] |  |  |  | 500

Reference: paper PMC9298352, “Design, Synthesis and Structural Analysis of Glucocerebrosidase Imaging Agents” (Chemistry (Weinheim an Der Bergstrasse, Germany), 2021)
